Earlier results in patent publication US20230218648A1, “USE OF HUMAN MILK OLIGOSACCHARIDES IN NUTRITIONAL COMPOSITIONS FOR ENHANCING BONE DEVELOPMENT AND/OR BONE STRENGTH” (SOCIETE DES PRODUITS NESTLE S.A., priority 2020, published 2023).

System: osteoclast and osteoblast biology
Details: reported by C.A. Cowardin et al., PNAS, 2019, 116

2′-fucosyllactose [2′-FL]
changes in bone-biology: failed to elicit changes in bone-biology
